From EP0626016B1, “[…] […]” (BRITISH TECHNOLOGY GROUP LIMITED, priority 1992, dated 1993)
Like-named read-outs stand apart in the source and are kept apart here.

Target: T1, HRP Type VIA (Armoracia rusticana, UniProt P00433)
T1 sequence (P00433 31-338): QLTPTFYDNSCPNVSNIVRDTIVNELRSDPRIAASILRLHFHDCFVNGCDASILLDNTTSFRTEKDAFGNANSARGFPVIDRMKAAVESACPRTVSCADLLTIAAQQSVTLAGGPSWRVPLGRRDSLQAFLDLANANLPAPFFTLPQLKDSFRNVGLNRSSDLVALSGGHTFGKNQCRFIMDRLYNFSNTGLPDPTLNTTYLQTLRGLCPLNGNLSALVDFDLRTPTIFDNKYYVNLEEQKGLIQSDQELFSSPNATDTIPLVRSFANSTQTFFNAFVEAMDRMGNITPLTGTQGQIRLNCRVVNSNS
Settings: for (d) Signal: Background: ratio (control = with no enhancer): control value in brackets not reported

Row | (a) Decrease in background (without HRP with test cpd.) (0.01 mg/ml, 10µl test compound) | (b) Increase in signal (with HRP, with test cpd.) (0.01 mg/ml, 10µl test compound) | (c) Increase in signal: background ratio (0.01 mg/ml, 10µl test compound) | (a) Decrease in background (without HRP with test cpd.) (0.1 mg/ml, 10µl test compound) | (b) Increase in signal (with HRP, with test cpd.) (0.1 mg/ml, 10µl test compound) | (c) Increase in signal: background ratio (0.1 mg/ml, 10µl test compound) | (a) Decrease in background (without HRP with test cpd.) (1 mg/ml, 10µl test compound) | (b) Increase in signal (with HRP, with test cpd.) (1 mg/ml, 10µl test compound) | (c) Increase in signal: background ratio (1 mg/ml, 10µl test compound) | (d) Signal: Background: ratio (control = with no enhancer) (0.01 mg/ml, 10µl test compound) | (d) Signal: Background: ratio (control = with no enhancer) (0.1 mg/ml, 10µl test compound) | (d) Signal: Background: ratio (control = with no enhancer) (1 mg/ml, 10µl test compound) | Molecule | (a) Decrease in background (without HRP with test cpd.) | (b) Increase in signal (with HRP, with test cpd.) | (c) Increase in signal: background ratio
1 | Y | N | N (N = no) | Y | N | N (N = no) | Y | N | N (N = no) |  |  |  | 2-benzimidazolylphenylboronic acid [Compound 1046] |  |  | 
2 |  |  |  |  |  |  |  |  |  |  |  |  | C[Si](C)(C)c1ccc(B(O)O)cc1 [Compound 1001, 4-(trimethylsilyl) benzeneboronic acid] | Y | N and Y | Y (key: Column (c) shows whether there was an increase in the signal:background ratio by over 25% of the control value (Y = yes; N = no)
3 | Y | N | N (N = no) | Y | N | N (N = no) | Y | N | N (N = no) | 1.9 | 2.2 | 1.7 (2.3) | OB(O)c1ccccc1-c1ccccc1 [Compound 1004, 2-biphenylboronic acid] |  |  | 
4 | Y | N | N (N = no) | Y | N | N (N = no) | Y | N | N (N = no) | 2.1 | 2.5 | 1.8 (2.1) | OB(O)c1cccc2c1Sc1ccccc1S2 [Compound 1007, 1-thianthreneboronic acid] |  |  | 
5 | Y | N | N (N = no) | Y | N | N (N = no) | Y | N | N (N = no) | 1.6 | 1.5 | 1.3 (2.5) | OB(O)c1cccc2c1oc1ccccc12 [Compound 1008, 4-dibenzofuranboronic acid] |  |  | 

Row | Molecule | (a) Decrease in background (without HRP with test cpd.) (0.01 mg/ml, 10µl test compound) | (b) Increase in signal (with HRP, with test cpd.) (0.01 mg/ml, 10µl test compound) | (c) Increase in signal: background ratio (0.01 mg/ml, 10µl test compound) | (a) Decrease in background (without HRP with test cpd.) (0.1 mg/ml, 10µl test compound) | (b) Increase in signal (with HRP, with test cpd.) (0.1 mg/ml, 10µl test compound) | (c) Increase in signal: background ratio (0.1 mg/ml, 10µl test compound) | (a) Decrease in background (without HRP with test cpd.) (1 mg/ml, 10µl test compound) | (b) Increase in signal (with HRP, with test cpd.) (1 mg/ml, 10µl test compound) | (c) Increase in signal: background ratio (1 mg/ml, 10µl test compound) | (d) Signal: Background: ratio (control = with no enhancer) (0.01 mg/ml, 10µl test compound) | (d) Signal: Background: ratio (control = with no enhancer) (0.1 mg/ml, 10µl test compound) | (d) Signal: Background: ratio (control = with no enhancer) (1 mg/ml, 10µl test compound) | (a) Decrease in background (without HRP with test cpd.) | (b) Increase in signal (with HRP, with test cpd.) | (c) Increase in signal: background ratio
6 | OB(O)c1cccc2ccccc12 [Compound 1002, 1-naphthaleneboronic acid] | Y | N | N (N = no) | Y | N | Y (Column (c) shows whether there was an increase in the signal:background ratio by over 25% of the control value (Y = yes) | Y | N | N (N = no) | 2.5 | 3.4 | 0.7 (2.3) |  |  | 
7 | COc1ccc(Br)cc1B(O)O [Compound 1003, 5-bromo-2-methoxybenzeneboronic acid] | Y | N | Y (Column (c) shows whether there was an increase in the signal:background ratio by over 25% of the control value (Y = yes) | Y | N | Y (Column (c) shows whether there was an increase in the signal:background ratio by over 25% of the control value (Y = yes) | Y | N | N (N = no) | 8.6 | 12.1 | 2.6 (2.3) |  |  | 
8 | OB(O)c1cc(N=Nc2cccc(C(F)(F)F)c2)ccc1O [Compound 1005] | N | Y | Y (Column (c) shows whether there was an increase in the signal:background ratio by over 25% of the control value (Y = yes) | N | Y | Y (Column (c) shows whether there was an increase in the signal:background ratio by over 25% of the control value (Y = yes) | Y | N | N (N = no) | 2.7 | 2.9 | 2.4 (2.1) |  |  | 
9 | OB(O)c1ccc2cc(O)ccc2c1 [Compound 1006, 6-hydroxy-2-naphthaleneboronic acid] | Y | N | Y (Column (c) shows whether there was an increase in the signal:background ratio by over 25% of the control value (Y = yes) | Y | N | N (N = no) | Y | N | N (N = no) | 5.8 | 1.5 | 0.3 (1.8) |  |  | 
10 | Cc1ccccc1B(O)O [Compound 1009, 2-tolueneboronic acid] | Y | N | N (N = no) | Y | N | Y (Column (c) shows whether there was an increase in the signal:background ratio by over 25% of the control value (Y = yes) | Y | N | N (N = no) | 1.9 | 2.5 | 0.6 (1.8) |  |  | 
